Test results published in patent US11427553B2, “Dihydrooxadiazinones” (Bayer Aktiengesellschaft, priority 2017, dated 2022).

These compounds were tested on HeLa cells (assay: Assay 1 cell proliferation measurement (CTG, 72 h), HeLa). Conditions: Homo sapiens, HeLa; Assay 1, 72 h, Cell Titer Glo; read-out: HeLa IC50 [nM] (Cervical cancer).
Assay type: cell-based, human
Description: Cell Proliferation Measurement
The antiproliferative activity of the compounds of the general formula (I) was examined in vitro in human cancer cells. For this purpose, the appropriate number of cells (Hela: 800; SK-MEL-3: 1000; A549: 800) were plated in 384-well plates with appropriate growth medium ((A549: DMEM/Ham's F12 (Biochrom; #FG 4815 with stabile Glutamine), FCS 10% final (Biochrom; #S 0415); Hela: DMEM/Ham's F12 (Biochrom; #FG 4815 with stabile Glutamine), FCS 10% final (Biochrom; #S 0415); SK-MEL-3: McCoy's 5A (Biochrom; #F 1015), FCS 10% final (Biochrom; #S 0415), L-Alanyl-L-Glutamine final: 2 mM, (Biochrom; #K 0302)) and incubated at 37° C. overnight. After 24 h, cells on one plate (0 h plate) were treated with 30 μl/cavity of CTG solution (Promega Cell Titer Glo (catalogue #G755B and G756B)) and incubated at room temperature for 10 min, and luminescence was measured by means of a VICTOR V (Perkin Elmer), in order to determine cell viability on commencement of treatment. The cells on the test plate were treated with the compounds of the general formula (I) as and incubated at 37° C. for 72 h. The compounds were added to the cells by means of an HP D300 digital dispenser in a 10-step 2.5-fold dilution series generally starting at a maximum final drug concentration of 100 nM. As control, the cells were treated with vehicle (DMSO at 0.3% final concentration). After 72 h, the cells were treated with 30 μl/cavity of CTG solution (Promega Cell Titer Glo (catalogue #G755B and G756B)) and incubated at room temperature for 10 min. and luminescence was measured by means of a VICTOR V (Perkin Elmer), in order to determine cell viability at the end of treatment. The percentage effect on cell growth and the IC50 derived therefrom were determined for each test substance using the values from the 0 h plate […] and the DMSO control […]. The IC50 values were calculated using a 4-parameter fit.

IC50 [nM]	SMILES
13	O=C1NN=C(c2ccc(NCCCn3ccnc3)c(C(F)(F)F)c2)CO1 [Example 282, 5-[4-{[3-(1H-imidazol-1-yl)propyl]amino}-3-(trifluoromethyl)phenyl]-3,6-dihydro-2H-1,3,4-oxadiazin-2-one]
13	CN(CC(C)(C)O)c1ccc(C2=NNC(=O)OC2)cc1C(F)(F)F [Example 283, 5-{4-[(2-hydroxy-2-methylpropyl)(methyl)amino]-3-(trifluoromethyl)phenyl}-3,6-dihydro-2H-1,3,4-oxadiazin-2-one]
14	O=C1NN=C(c2ccc(N3CCC4(CCOC4)C3)c(C(F)(F)F)c2)CO1 (centres unmarked) [Example 284, 5-[4-(2-oxa-7-azaspiro[4.4]nonan-7-yl)-3-(trifluoromethyl)phenyl]-3,6-dihydro-2H-1,3,4-oxadiazin-2-one]
14	CCCC(CO)Nc1ccc(C2=NNC(=O)OC2)cc1C(F)(F)F (centres unmarked) [Example 285, 5-{4-[(1-hydroxypentan-2-yl)amino]-3-(trifluoromethyl)phenyl}-3,6-dihydro-2H-1,3,4-oxadiazin-2-one]
23	Cn1ccc(CNc2ccc(C3=NNC(=O)OC3)cc2C(F)(F)F)n1 [Example 286, 5-[4-{[(1-methyl-1H-pyrazol-3-yl)methyl]amino}-3-(trifluoromethyl)phenyl]-3,6-dihydro-2H-1,3,4-oxadiazin-2-one]
23	NC(=O)C1CN(c2ccc(C3=NNC(=O)OC3)cc2C(F)(F)F)C1 [Example 287, 1-[4-(2-oxo-3,6-dihydro-2H-1,3,4-oxadiazin-5-yl)-2-(trifluoromethyl)phenyl]azetidine-3-carboxamide]
26	O=C1NN=C(c2ccc(NCc3cccnc3)c(C(F)(F)F)c2)CO1 [Example 288, 5-[4-{[(pyridin-3-yl)methyl]amino}-3-(trifluoromethyl)phenyl]-3,6-dihydro-2H-1,3,4-oxadiazin-2-one]
26	CN(c1ccc(C2=NNC(=O)OC2)cc1C(F)(F)F)C1CCC(O)CC1 (centres unmarked) [Example 289, 5-{4-[(4-hydroxycyclohexyl)(methyl)amino]-3-(trifluoromethyl)phenyl}-3,6-dihydro-2H-1,3,4-oxadiazin-2-one]
32	O=C1CCC(CNc2ccc(C3=NNC(=O)OC3)cc2C(F)(F)F)N1 (centres unmarked) [Example 290, 5-[4-{[(5-oxopyrrolidin-2-yl)methyl]amino}-3-(trifluoromethyl)phenyl]-3,6-dihydro-2H-1,3,4-oxadiazin-2-one]
35	O=C1NN=C(c2ccc(NCCc3cnc[nH]3)c(C(F)(F)F)c2)CO1 [Example 291, 5-[4-{[2-(1H-imidazol-5-yl)ethyl]amino}-3-(trifluoromethyl)phenyl]-3,6-dihydro-2H-1,3,4-oxadiazin-2-one]
43	C[C@@H](O)[C@@H](CO)Nc1ccc(C2=NNC(=O)OC2)cc1C(F)(F)F [Example 292, 5-[4-{[(2R,3R)-1,3-dihydroxybutan-2-yl]amino}-3-(trifluoromethyl)phenyl]-3,6-dihydro-2H-1,3,4-oxadiazin-2-one]
43	CC(C)C[C@H](CO)Nc1ccc(C2=NNC(=O)OC2)cc1C(F)(F)F [Example 293, 5-[4-{[(2R)-1-hydroxy-4-methylpentan-2-yl]amino}-3-(trifluoromethyl)phenyl]-3,6-dihydro-2H-1,3,4-oxadiazin-2-one]
45	O=C1NN=C(c2ccc(NCC3CCOCC3)c(C(F)(F)F)c2)CO1 [Example 294, 5-[4-{[(oxan-4-yl)methyl]amino}-3-(trifluoromethyl)phenyl]-3,6-dihydro-2H-1,3,4-oxadiazin-2-one]
47	Cn1ccnc1CNc1ccc(C2=NNC(=O)OC2)cc1C(F)(F)F [Example 295, 5-[4-{[(1-methyl-1H-imidazol-2-yl)methyl]amino}-3-(trifluoromethyl)phenyl]-3,6-dihydro-2H-1,3,4-oxadiazin-2-one]
59	O=C1NN=C(c2ccc(NC(C3CC3)C3CC3)c(C(F)(F)F)c2)CO1 [Example 296, 5-{4-[(dicyclopropylmethyl)amino]-3-(trifluoromethyl)phenyl}-3,6-dihydro-2H-1,3,4-oxadiazin-2-one]
59	O=C1NN=C(c2ccc(NCCn3ccnn3)c(C(F)(F)F)c2)CO1 [Example 297, 5-[4-{[2-(1H-1,2,3-triazol-1-yl)ethyl]amino}-3-(trifluoromethyl)phenyl]-3,6-dihydro-2H-1,3,4-oxadiazin-2-one]

IC50 [nM]	SMILES
62	CC1(CNc2ccc(C3=NNC(=O)OC3)cc2C(F)(F)F)CCOCC1 [Example 298, 5-[4-{[(4-methyloxan-4-yl)methyl]amino}-3-(trifluoromethyl)phenyl]-3,6-dihydro-2H-1,3,4-oxadiazin-2-one]
69	O=C1NN=C(c2ccc(NCc3cncnc3)c(C(F)(F)F)c2)CO1 [Example 299, 5-[4-{[(pyrimidin-5-yl)methyl]amino}-3-(trifluoromethyl)phenyl]-3,6-dihydro-2H-1,3,4-oxadiazin-2-one]
90	Cn1cc(CNc2ccc(C3=NNC(=O)OC3)cc2C(F)(F)F)cn1 [Example 300, 5-[4-{[(1-methyl-1H-pyrazol-4-yl)methyl]amino}-3-(trifluoromethyl)phenyl]-3,6-dihydro-2H-1,3,4-oxadiazin-2-one]
> 100	CN1CCCC(Nc2ccc(C3=NNC(=O)OC3)cc2C(F)(F)F)CC1 (centres unmarked) [Example 301, 5-{4-[(1-methylazepan-4-yl)amino]-3-(trifluoromethyl)phenyl}-3,6-dihydro-2H-1,3,4-oxadiazin-2-one]
> 100	CC1CN(C)CCN(c2ccc(C3=NNC(=O)OC3)cc2C(F)(F)F)C1 (centres unmarked) [Example 302, 5-[4-(4,6-dimethyl-1,4-diazepan-1-yl)-3-(trifluoromethyl)phenyl]-3,6-dihydro-2H-1,3,4-oxadiazin-2-one]
> 100	CNC(=O)CCNc1ccc(C2=NNC(=O)OC2)cc1C(F)(F)F [Example 303, N-methyl-N^3-[4-(2-oxo-3,6-dihydro-2H-1,3,4-oxadiazin-5-yl)-2-(trifluoromethyl)phenyl]-beta-alaninamide]
> 100	CNC(=O)C1CCCN1c1ccc(C2=NNC(=O)OC2)cc1C(F)(F)F (centres unmarked) [Example 304, N-methyl-1-[4-(2-oxo-3,6-dihydro-2H-1,3,4-oxadiazin-5-yl)-2-(trifluoromethyl)phenyl]prolinamide]
> 100	CN1CC(CNc2ccc(C3=NNC(=O)OC3)cc2C(F)(F)F)CC1=O (centres unmarked) [Example 305, 5-[4-{[(1-methyl-5-oxopyrrolidin-3-yl)methyl]amino}-3-(trifluoromethyl)phenyl]-3,6-dihydro-2H-1,3,4-oxadiazin-2-one]
> 100	CCNC(=O)CNc1ccc(C2=NNC(=O)OC2)cc1C(F)(F)F [Example 306, ethyl-N^2-[4-(2-oxo-3,6-dihydro-2H-1,3,4-oxadiazin-5-yl)-2-(trifluoromethyl)phenyl]glycinamide]
> 100	CN(C)C(=O)CNc1ccc(C2=NNC(=O)OC2)cc1C(F)(F)F [Example 307, N,N-dimethyl-N^2-[4-(2-oxo-3,6-dihydro-2H-1,3,4-oxadiazin-5-yl)-2-(trifluoromethyl)phenyl]glycinamide]
> 100	O=C1NN=C(c2ccc(NCc3cccnn3)c(C(F)(F)F)c2)CO1 [Example 308, 5-[4-{[(pyridazin-3-yl)methyl]amino}-3-(trifluoromethyl)phenyl]-3,6-dihydro-2H-1,3,4-oxadiazin-2-one]
> 100	CN1CCC(Nc2ccc(C3=NNC(=O)OC3)cc2C(F)(F)F)CC1 [Example 309, 5-{4-[(1-methylpiperidin-4-yl)amino]-3-(trifluoromethyl)phenyl}-3,6-dihydro-2H-1,3,4-oxadiazin-2-one]
> 100	CN(C)C1CCN(c2ccc(C3=NNC(=O)OC3)cc2C(F)(F)F)C1 (centres unmarked) [Example 310, 5-{4-[3-(dimethylamino)pyrrolidin-1-yl]-3-(trifluoromethyl)phenyl}-3,6-dihydro-2H-1,3,4-oxadiazin-2-one]
> 100	CC1CC(Nc2ccc(C3=NNC(=O)OC3)cc2C(F)(F)F)CCN1 (centres unmarked) [Example 311, 5-{4-[(2-methylpiperidin-4-yl)amino]-3-(trifluoromethyl)phenyl}-3,6-dihydro-2H-1,3,4-oxadiazin-2-one]
> 100	O=C1NN=C(c2ccc(NCCCn3cnnc3)c(C(F)(F)F)c2)CO1 [Example 312, 5-[4-{[3-(4H-1,2,4-triazol-4-yl)propyl]amino}-3-(trifluoromethyl)phenyl]-3,6-dihydro-2H-1,3,4-oxadiazin-2-one]
> 100	O=C1NN=C(c2ccc(NCCN3CCNC3=O)c(C(F)(F)F)c2)CO1 [Example 313, 5-[4-{[2-(2-oxoimidazolidin-1-yl)ethyl]amino}-3-(trifluoromethyl)phenyl]-3,6-dihydro-2H-1,3,4-oxadiazin-2-one]
